We go through five compounds from publication PMC10424178, “Discovery of 5-Phenylpyrazolopyrimidinone Analogs as Potent Antitrypanosomal Agents with In Vivo Efficacy” (Journal of Medicinal Chemistry, 2023).

In test [1] the test system is T. b. brucei. The test is described as follows: Antitrypanosomal assay, T. brucei Squib 427, resazurin viability. In kind it is cell-based. Conditions: for times more potent than 1 against T. b. brucei: relative to 1. In general terms: The colour change of resazurin is a common sign of viable cells or microbes.
Test [2] addresses TbrPDEB1 (Trypanosoma brucei, UniProt Q8WQX9). Put plainly: TbrPDEB1 enzyme assay (PDELight HTS cAMP phosphodiesterase kit). In kind it is biochemical, T. brucei.
Test [3] relates to T. b. brucei. Put plainly: Acute (stage-I) mouse model of T. b. brucei infection. In kind it is in vivo.
In test [4] the target is human PDE4D2 (Homo sapiens, UniProt Q08499). Put plainly: Eurofins Safety-47 panel, PDE4D2. Conditions: read-out: inhibition of human PDE4D2.
Sequence of human PDE4D2 (Q08499 303-809): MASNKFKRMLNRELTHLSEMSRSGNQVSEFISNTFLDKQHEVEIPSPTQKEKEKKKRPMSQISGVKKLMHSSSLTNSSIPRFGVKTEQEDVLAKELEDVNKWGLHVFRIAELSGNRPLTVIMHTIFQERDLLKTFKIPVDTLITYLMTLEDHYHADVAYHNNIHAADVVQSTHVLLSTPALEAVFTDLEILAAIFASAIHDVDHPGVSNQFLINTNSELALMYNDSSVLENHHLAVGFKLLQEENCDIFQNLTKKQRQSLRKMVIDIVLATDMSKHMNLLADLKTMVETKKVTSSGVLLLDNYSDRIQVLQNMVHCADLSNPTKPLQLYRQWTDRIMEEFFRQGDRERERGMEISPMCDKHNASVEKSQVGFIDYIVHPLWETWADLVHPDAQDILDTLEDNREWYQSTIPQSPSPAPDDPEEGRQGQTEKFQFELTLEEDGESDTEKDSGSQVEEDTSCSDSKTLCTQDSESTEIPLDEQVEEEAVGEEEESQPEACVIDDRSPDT
Test [5] deals with PDE5 (Homo sapiens, UniProt O76074). Put plainly: PDE5 inhibition. In kind it is biochemical.

Entries after “also recorded” stand apart in the source; their conditions may differ. Where only a bound is given, the exact number is not on record here.

Sequence of TbrPDEB1 (Q8WQX9 entry or part of it): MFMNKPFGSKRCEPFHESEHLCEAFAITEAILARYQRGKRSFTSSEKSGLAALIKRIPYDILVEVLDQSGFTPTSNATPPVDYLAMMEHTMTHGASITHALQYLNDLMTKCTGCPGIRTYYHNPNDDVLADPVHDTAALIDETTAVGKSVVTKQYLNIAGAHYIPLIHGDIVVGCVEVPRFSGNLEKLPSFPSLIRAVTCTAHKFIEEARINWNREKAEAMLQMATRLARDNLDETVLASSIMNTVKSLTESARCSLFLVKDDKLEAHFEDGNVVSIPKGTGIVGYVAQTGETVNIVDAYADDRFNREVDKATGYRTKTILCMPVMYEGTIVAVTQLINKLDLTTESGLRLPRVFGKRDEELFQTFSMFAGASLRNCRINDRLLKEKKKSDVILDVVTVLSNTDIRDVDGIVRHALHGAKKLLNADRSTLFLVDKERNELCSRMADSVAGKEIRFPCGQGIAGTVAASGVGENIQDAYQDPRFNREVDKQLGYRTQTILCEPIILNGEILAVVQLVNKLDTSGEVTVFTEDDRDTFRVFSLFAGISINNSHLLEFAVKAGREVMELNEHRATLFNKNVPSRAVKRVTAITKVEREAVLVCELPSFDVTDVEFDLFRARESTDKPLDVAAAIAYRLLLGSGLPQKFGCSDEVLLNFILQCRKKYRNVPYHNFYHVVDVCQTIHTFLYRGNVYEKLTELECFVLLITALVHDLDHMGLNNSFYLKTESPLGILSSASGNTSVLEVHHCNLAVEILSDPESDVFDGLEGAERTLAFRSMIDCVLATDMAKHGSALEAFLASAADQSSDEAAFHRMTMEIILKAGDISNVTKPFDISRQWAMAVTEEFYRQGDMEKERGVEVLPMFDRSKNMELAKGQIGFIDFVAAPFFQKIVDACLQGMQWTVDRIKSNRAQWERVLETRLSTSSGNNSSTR

Take `COc1ccccc1-c1nc2c(C(C)C)n[nH]c2c(=O)[nH]1` [compound 22, 3-Isopropyl-5-(2-methoxyphenyl)-1,6-dihydro-7H-pyrazolo[4,3-d]pyrimidin-7-one]: the “reduction in potency against T. b. brucei compared with 15” value in test [1] (relative to 15) was determined as 25 fold.
For orientation: inhibition means the share of the control response that was lost under treatment. For the compound `CC(C)c1n[nH]c2c(=O)[nH]c(-c3ccc(F)cc3)nc12` [compound 30, 5-(4-Fluorophenyl)-3-isopropyl-1,6-dihydro-7H-pyrazolo[4,3-d]pyrimidin-7-one], the “TbrPDEB1 inhibition pKi” value in test [2] was “inactive”. Also, in test [3] (25 mg/kg b.i.d. for 5 days), the “time by which all animals relapsed and succumbed” value was at most 11 dpi. In addition, in test [3] (50 mg/kg PO twice daily for 5 consecutive days, follow-up 60 dpi), the “outcome of treatment (parasitemia / cure)” value was “all infected mice were cured; also recorded: apparent full clearance of parasitemia; also recorded: complete cure”. Further, the results for the inhibition at 10 µM in test [4] and in test [5] were 75% and 52%, respectively.
For `CC(C)c1n[nH]c2c(=O)[nH]c(-c3ccccc3)nc12` [compound 15, 3-Isopropyl-5-phenyl-1,6-dihydro-7H-pyrazolo[4,3-d]pyrimidin-7-one], the “times more potent than 1 against T. b. brucei” value in test [1] is listed as 125 times.
The same measure, in the same setting: for `CC(C)c1n[nH]c2c(=O)[nH]c(-c3ccncc3)nc12` [compound 16, 3-Isopropyl-5-(pyridin-4-yl)-1,6-dihydro-7H-pyrazolo[4,3-d]pyrimidin-7-one] the value was 16 times.
Turning to `CC(C)c1n[nH]c2c(=O)[nH]c(-c3ccc(N4CCN(C)CC4)cc3)nc12` [compound 45, 3-Isopropyl-5-(4-(4-methylpiperazin-1-yl)phenyl)-1,6-dihydro-7H-pyrazolo[4,3-d]pyrimidin-7-one], the IC50 in test [1] (Trypanosoma brucei, T. brucei Squib 427 strain, 72 h drug exposure, highest concentration 64 μM, mean of at least two independent experiments, read-out: T. b. brucei pIC50 (converted)) was 20 µM.
